The values that follow come from patent publication US5189171A, “Antipsychotic benzodioxan derivatives” (American Home Products Corporation, priority 1992, dated 1993).

In one assay the test system is 5-HT1A receptor. Particulars: cited from earlier work.
A further assay has as its target T1, dopamine D2 receptor (Rattus norvegicus, UniProt P61169).
T1 construct: from tissue; host or cells: homogenized limbic brain tissue
Description: Affinity for the dopamine D2 receptor, 3H-spiroperidol binding in homogenized limbic brain tissue. Particulars: for IC50: read-out: Receptor Affinities D2 (IC50 (nM)); for inhibition at 1 µM: read-out: Receptor Affinities D2 (% @ ( ) μM). Here is the method:
Affinity for the dopamine D2 receptor was established by the standard experimental test procedure of Fields, et al., Brain Res., 136, 578 (1977) and Yamamura et al., eds., Neurotransmitter Receptor Binding, Raven Press, New York (1978) wherein homogenized limbic brain tissue is incubated with ^3 H-spiroperidol and various concentrations of test compound, filtered and washed and shaken with Hydrofluor scintillation cocktail (National Diagnostics) and counted in a Packard 460 CD scintillation counter.

The next assay deals with mouse locomotor activity. The experiment in a line: Reduction of mouse locomotor activity (hypolocomotion; Martin and Bendensky). To be noted: horizontal activity counts 10 to 20 minutes after dosing; for ED50: Mus musculus, ip, 20 min. The class given is in vivo, mouse (male, CF-1). Here is the method: The antipsychotic activity of the compounds of the invention was further established by a determination of the compounds' ability to reduce mouse locomotor activity according to the method of Martin and Bendensky, J. Pharmacol. Exp. Therap. 229: 706-711, 1984, in which mice (male, CF-1, Charles River, 20-30 g) were injected with vehicle or various doses of each drug and locomotor activity was measured for 30 minutes using automated infrared activity monitors (Omnitech-8×8 inch open field) located in a darkened room. ED50's were calculated from the horizontal activity counts collected from 10 to 20 minutes after dosing using a nonlinear regression analysis with inverse prediction.

Assay [1] has as its target T2, serotonin 5-HT1A receptor (Rattus norvegicus, UniProt P19327).
T2 construct: following the procedure of Hall et al., J. Neurochem; 44, 1685 (1985); from tissue
T2 sequence (P19327 1-422): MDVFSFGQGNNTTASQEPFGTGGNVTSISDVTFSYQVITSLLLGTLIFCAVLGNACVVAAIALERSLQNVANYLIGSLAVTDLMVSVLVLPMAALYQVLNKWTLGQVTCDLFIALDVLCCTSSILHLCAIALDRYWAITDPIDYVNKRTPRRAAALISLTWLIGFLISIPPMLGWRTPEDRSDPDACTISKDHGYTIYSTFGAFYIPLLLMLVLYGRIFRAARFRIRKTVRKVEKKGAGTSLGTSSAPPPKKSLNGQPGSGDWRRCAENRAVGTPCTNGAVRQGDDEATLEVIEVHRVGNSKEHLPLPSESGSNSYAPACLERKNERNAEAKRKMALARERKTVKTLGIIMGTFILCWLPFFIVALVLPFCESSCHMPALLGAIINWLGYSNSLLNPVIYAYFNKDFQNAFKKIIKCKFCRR
Description: Affinity for the serotonin 5-HT1A receptor, displacement of [3H]8-OHDPAT (Hall et al.). The class given is binding. Particulars: [3H]8-OHDPAT displacement; for IC50: read-out: Receptor Affinities 5-HT1A (IC50 (nM)); for inhibition at 0.1 µM: read-out: Receptor Affinities 5-HT1A (% @ ( ) μM). From the text: Affinity for the serotonin 5-HT1A receptor was established by testing the claimed compound's ability to displace [^3 H]8-OHDPAT (dipropylaminotetralin) from the 5-HT1A serotonin receptor following the procedure of Hall et al., J. Neurochem. 44, 1685 (1985). […] The anxiolytic activity of buspirone is believed to be, at least partially, due to its 5-HT1A receptor affinity (Vander Maclen et al., Eur. J. Pharmacol. 1986, 129 (1-2) 133-[…]).
For orientation: In a radioligand displacement assay an active substance lowers the binding of a labelled ligand.

Assay [2] relates to dopamine synthesis (dopa accumulation; dopamine autoreceptor). The experiment in a line: Inhibition of dopa accumulation in GBL-treated rats (method of Walters and Roth). The class given is in vivo, rat (male, Sprague-Dawley). Particulars: rat; for Dopa Accumulation (% inhib. @ 10 mg/kg, sc), limbic (L): limbic (L) brain tissue; for Dopa Accumulation (% inhib. @ 10 mg/kg, sc), striatal (S): striatal (S) brain tissue; for Dopa Accumulation (% inhib. @ 10 mg/kg, sc), tissue not indicated: (L)/(S) mark not given. Here is the method: The effect of the compounds of the invention on the synthesis of dopamine was established by the method of Walters and Roth, Naunyn-Schmiedeberg's Arch. Pharmacol. 296:5-14, 1976, in which rats (male, Sprague-Dawley, Charles River, 200-350 g) were administered vehicle or test drug ten minutes prior to the administration of gamma butyrolactone (GBL; 750 mg/kg, ip to inhibit dopaminergic impulse flow) and 20 minutes prior to NSD-1015 (100 mg/kg, ip to prevent the conversion of dopa to dopamine). Thirty minutes after NSD-1015 all rats were humanely euthenized and the nucleus accumbens and the straitum were removed for analysis. Following perchloric acid extraction of the tissue, the extracts were placed over alumina columns to collect and concentrate dopa and other catechols. This eluate was then subjected to HPLC analysis using electrochemical detection to quantify the levels of dopa present. Dopamine autoreceptor agonists, under the conditions used above, inhibit dopa accumulation.

Where “and” joins values, the source holds several entries; their conditions need not be identical. Equal values may be shown once.

T1 sequence (P61169 whole entry): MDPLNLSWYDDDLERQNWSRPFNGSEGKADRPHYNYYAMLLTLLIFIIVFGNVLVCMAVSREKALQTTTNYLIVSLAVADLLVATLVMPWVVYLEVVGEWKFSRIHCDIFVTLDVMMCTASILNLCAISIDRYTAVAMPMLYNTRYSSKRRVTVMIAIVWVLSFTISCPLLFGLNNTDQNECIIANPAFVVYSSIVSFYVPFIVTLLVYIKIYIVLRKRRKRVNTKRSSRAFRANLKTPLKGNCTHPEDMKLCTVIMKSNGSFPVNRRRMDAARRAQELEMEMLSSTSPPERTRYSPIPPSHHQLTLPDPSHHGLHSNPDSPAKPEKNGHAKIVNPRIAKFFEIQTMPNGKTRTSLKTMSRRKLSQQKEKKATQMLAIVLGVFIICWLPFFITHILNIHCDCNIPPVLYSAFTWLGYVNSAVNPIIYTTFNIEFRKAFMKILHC

For `O=C1CC2(CCCC2)CC(=O)N1CCCCNCC1COc2ccccc2O1` (single isomer, unassigned; (-)) [(-)-MDL 72832], in the assay with 5-HT1A receptor ((-)-isomer vs dextrorotary isomer, Fozard et al. 1987), the “binding at the 5-HT1A receptor site relative to the dextrorotary isomer” value is listed as 32 times.

For the molecule `O=c1ccc2ccc(OCCCNCC3COc4ccccc4O3)cc2o1` (stereo not drawn) [Example 1, 7-[3-[[(2,3-Dihydro-1,4-benzodioxin-2-yl)methyl]amino]propoxy]-2H-1-benzopyran-2-one], at dopamine D2 receptor, the IC50 is 112 nM. Moreover, the 50% effect level with mouse locomotor activity (ED50) was put at a dose of 0.58 mg/kg. Moreover, the IC50 in assay [1] was found to be 0.5 nM. In assay [2], the “Dopa Accumulation (% inhib. @ 10 mg/kg, sc), limbic (L)” value was 39% and the “Dopa Accumulation (% inhib. @ 10 mg/kg, sc), striatal (S)” value amounted to 1%.

On to `COc1cccc2c1OCC(CNCCCOc1ccc3ccc(=O)oc3c1)O2` (stereo not drawn) [Example 2, 7-[3-[[(2,3-Dihydro-5-methoxy-1,4-benzodioxin-2-yl)methyl]amino]propoxy]-2H-1-benzopyran-2-one], for which, in assay [2], the “Dopa Accumulation (% inhib. @ 10 mg/kg, sc), limbic (L)” value was -12%.

Consider `O=c1ccc2ccc(OCCCNCC3COc4cc(OCc5ccccc5)ccc4O3)cc2o1` (stereo not drawn) [Example 4, 7-[3-[[(2,3-Dihydro-6-phenylmethoxy-1,4-benzodioxin-2-yl)methyl]amino]propoxy]-2H-1-benzopyran-2-one], for which the “Dopa Accumulation (% inhib. @ 10 mg/kg, sc), limbic (L)” value in assay [2] is given as 20%.

Take `O=c1ccc2ccc(OCCCNCC3COc4cc(O)ccc4O3)cc2o1` (stereo not drawn) [Example 5, 7-[3-[[(2,3-Dihydro-6-hydroxy-1,4-benzodioxin-2-yl)methyl]amino]propoxy]-2H-1-benzopyran-2-one]: the IC50 at dopamine D2 receptor was 337 nM and 730 nM. Besides, in the assay on mouse locomotor activity, the ED50 came out at 1.62 mg/kg and the “Hypolocomotion (ED50 mg/kg, ip)” value turned out to be 2.04 mg/kg. Further, the IC50 in assay [1] is 112 nM. Further, in assay [2], the “Dopa Accumulation (% inhib. @ 10 mg/kg, sc), limbic (L)” value is on record as 60% and the “Dopa Accumulation (% inhib. @ 10 mg/kg, sc), striatal (S)” value stood at 18%.

Take `O=c1ccc2ccc(OCCCNCC3COc4ccc(O)cc4O3)cc2o1` (stereo not drawn) [Example 6, 7-[3-[[(2,3-Dihydro-7-hydroxy-1,4-benzodioxin-2-yl)methyl]amino]propoxy]-2H-1-benzopyran-2-one]: the inhibition at 1 µM at dopamine D2 receptor is 100%. The molecule also returned an ED50 in the assay with mouse locomotor activity of 0.19 mg/kg. For the same molecule, the IC50 in assay [1] is 6 nM. Further, in assay [2], the “Dopa Accumulation (% inhib. @ 10 mg/kg, sc), limbic (L)” value is recorded as 76% and the “Dopa Accumulation (% inhib. @ 10 mg/kg, sc), striatal (S)” value is reported as 73%.

For `O=c1ccc2c(OCCCNCC3COc4ccccc4O3)cccc2[nH]1` (stereo not drawn) [Example 7, 5-[3-[[(2,3-Dihydro-1,4-benzodioxin-2-yl)methyl]amino]propoxy]-2(1H)-quinolinone], in assay [2], the “Dopa Accumulation (% inhib. @ 10 mg/kg, sc), limbic (L)” value is 1.5% and the “Dopa Accumulation (% inhib. @ 10 mg/kg, sc), striatal (S)” value was 51.3%.

The molecule `O=c1ccc2ccc(OCCCNC[C@H]3COc4cc(O)ccc4O3)cc2o1` [Example 8, (S)-7-[3-[[(2,3-Dihydro-6-hydroxy-1,4-benzodioxin-2-yl)methyl]amino]propoxy]-2H-1-benzopyran-2-one] gave an ED50 with mouse locomotor activity of 3.5 mg/kg. Also, the IC50 in assay [1] was determined as 104 nM. The “Dopa Accumulation (% inhib. @ 10 mg/kg, sc), limbic (L)” value in assay [2] amounted to 50%.

For `COc1ccc2c(c1)OC(CNCCCOc1ccc3ccc(=O)oc3c1)CO2` (stereo not drawn) [Example 9, 7-[3-[[(2,3-Dihydro-7-methoxy-1,4-benzodioxin-2-yl)methyl]amino]propoxy]-2H-1-benzopyran-2-one], at dopamine D2 receptor, the inhibition at 1 µM turned out to be 66%. The “Dopa Accumulation (% inhib. @ 10 mg/kg, sc), limbic (L)” value in assay [2] is 21.7%.

Turning to `O=c1ccc2ccc(OCCCNC[C@@H]3COc4cc(O)ccc4O3)cc2o1` [Example 10, (R)-7-[3-[[(2,3-Dihydro-6-hydroxy-1,4-benzodioxin-2-yl)methyl]amino]propoxy]-2H-1-benzopyran-2-one], in assay [2], the “Dopa Accumulation (% inhib. @ 10 mg/kg, sc), tissue not indicated” value stood at 24.0%.

As to `CC(=O)Oc1ccc2c(c1)OCC(CNCCCOc1ccc3ccc(=O)oc3c1)O2` (stereo not drawn) [Example 11, 7-[3-[[(2,3-Dihydro-6-acetoxy-1,4-benzodioxin-2-yl)methyl]amino]propoxy]-2H-1-benzopyran-2-one], in assay [1], the inhibition at 0.1 µM came to 78%. In addition, the “Dopa Accumulation (% inhib. @ 10 mg/kg, sc), limbic (L)” value in assay [2] amounted to 37.7%.

As to `CCN(CCCOc1ccc2ccc(=O)oc2c1)CC1COc2ccc(O)cc2O1` (stereo not drawn) [Example 12, 7-[3-[[(2,3-Dihydro-7-hydroxy-1,4-benzodioxin-2-yl)methyl]ethylamino]propoxy]-2H-1-benzopyran-2-one], the ED50 with mouse locomotor activity was determined as 1.6 mg/kg. Further, the inhibition at 0.1 µM in assay [1] came out at 81%. Moreover, the “Dopa Accumulation (% inhib. @ 10 mg/kg, sc), limbic (L)” value in assay [2] is reported as 61.6%.

`COc1ccc2c(c1)OC(CN(C)CCCOc1ccc3ccc(=O)oc3c1)CO2` (stereo not drawn) [Example 14]: the “Dopa Accumulation (% inhib. @ 10 mg/kg, sc), tissue not indicated” value in assay [2] was determined as 19.5%.

Turning to `CN(CCCOc1ccc2ccc(=O)oc2c1)CC1COc2cc(O)ccc2O1` (stereo not drawn) [Example 15, 7-[3-[[(2,3-Dihydro-6-hydroxy-1,4-benzodioxin-2-yl)methyl]methylamino]propoxy]-2H-1-benzopyran-2-one], the inhibition at 0.1 µM in assay [1] turned out to be 23%. For the same molecule, the “Dopa Accumulation (% inhib. @ 10 mg/kg, sc), tissue not indicated” value in assay [2] amounted to 9.2%.

For the molecule `COc1cc(OC)c2c(c1)OCC(CNCCCOc1ccc3ccc(=O)oc3c1)O2` (stereo not drawn) [Example 19], the “Dopa Accumulation (% inhib. @ 10 mg/kg, sc), limbic (L)” value in assay [2] is 23%.

Turning to `O=c1ccc2ccc(OCCCNC[C@H]3COc4ccc(O)cc4O3)cc2o1` [Example 20, (S)-7-[3-[[(2,3-Dihydro-7-hydroxy-1,4-benzodioxin-2-yl)methyl]amino]propoxy]-2H-1-benzopyran-2-one], the “Dopa Accumulation (% inhib. @ 10 mg/kg, sc), limbic (L)” value in assay [2] worked out at 45%.

As for `O=C1CC2(CCCC2)CC(=O)N1CCCCNCC1COc2ccccc2O1` (stereo not drawn) [MDL 72832, 8-[4-(1,4-benzodioxan-2-ylmethylamino)butyl]-8-azaspiro[4.5]decane-7,9-dione], in the assay on 5-HT1A receptor (Fozard et al. 1987), the “selectivity as ligand for 5-HT1A receptors (in words)” value is “selective and stereospecific”.

As for `O=C1CC2(CCCC2)CC(=O)N1CCCCN1CCN(c2ncccn2)CC1` [buspirone], the “affinity for the 5-HT1A serotonin receptor subtype (in words)” value in the assay with 5-HT1A receptor (standard for anxiolytic activity) is “potent affinity”.

Broadly, the IC50 is the concentration at which inhibition is half-maximal. As usually defined, the ED50 is the dose at which the effect has come halfway, by size or by number of responders.
